pEC50, pIC50: −log10 of the molar value. Where two headings read alike, the source gives them in different places.
Key:
LmPTR1 [1] = target: T1, LmPTR1 (Leishmania major, UniProt Q01782); design: method as in PMID 29211037
T1 construct: His6 (N); made in house; host or cells: E. coli BL21 (DE3), vector pET 15b::LmPTR1His (strain from the group of M. Paola Costi, Modena)
T1 sequence (Q01782 1-288): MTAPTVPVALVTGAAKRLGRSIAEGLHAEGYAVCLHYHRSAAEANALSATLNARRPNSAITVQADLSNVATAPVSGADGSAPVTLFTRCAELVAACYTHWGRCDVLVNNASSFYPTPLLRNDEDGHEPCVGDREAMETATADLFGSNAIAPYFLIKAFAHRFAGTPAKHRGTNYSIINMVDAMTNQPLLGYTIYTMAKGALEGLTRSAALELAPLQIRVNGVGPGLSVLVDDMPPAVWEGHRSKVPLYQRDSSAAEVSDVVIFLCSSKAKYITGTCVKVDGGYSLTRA

hDHFR = target: T2, hDHFR (Homo sapiens, UniProt P00374); assay: Spectrophotometric enzyme inhibition assay, recombinant hDHFR (selectivity); type: biochemical; settings: for inhibition at 50 µM: set compound concentration of 50 μM, read-out: relative inhibition of hDHFR; for pEC50: read-out: EC50 hDHFR (footnote a)
T2 construct: His; host or cells: E. coli BL21 (DE3), vector pET 15b::hDHFRHis
T2 sequence (P00374 1-187): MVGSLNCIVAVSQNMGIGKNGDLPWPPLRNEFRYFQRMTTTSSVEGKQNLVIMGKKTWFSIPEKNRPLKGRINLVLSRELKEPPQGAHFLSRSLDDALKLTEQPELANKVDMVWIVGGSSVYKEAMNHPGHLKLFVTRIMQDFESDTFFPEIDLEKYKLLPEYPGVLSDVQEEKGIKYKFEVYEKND
Experimental: For 15 compounds, there was enough substance available to be tested in selectivity studies against hDHFR.
The used hDHFR concentration was 0.64 mg/mL, with a specific activity of 0.62 U/mg. All measurements were carried out using the saturating concentrations for dihydrofolate (100 μM) and NADPH (50 μM) in Buffer C (50 mM Tris/HCl (pH 7.6), 250 mM NaCl, 10 mM BME). The saturating conditions for hDHFR were determined using the diagrams depicted in Figure S20 in the Supplementary Materials.
(§1) The inhibitory effect of the selected natural products was investigated by testing the DMSO solution of each compound at a constant concentration of 100 μM for TbPTR1 and 50 μM for LmPTR1, TbDHFR, and LmDHFR, as well as hDHFR. The concentrations of the cofactor and substrates were set at the previously determined saturating conditions (Section 4.2.5). Each test compound was incubated for 20 min with the respective enzyme and NADPH to ensure a sufficient interaction time before the reaction was induced by the addition of the substrate. The enzymatic activity was determined in duplicates and correlated with a reference that contained just DMSO, instead of an inhibitor. The enzymatic activity of the reference was normalized to 100%.
(§2) The half-maximal inhibitory concentration (IC50) of the natural products was determined in triplicate, using at least five different inhibitor concentrations against a reference containing no inhibitor. The enzymatic activity was documented and analyzed and the IC50 value was determined by nonlinear regression using GraphPad Prism 9 (GraphPad Software Inc., La Jolla, CA, USA).

TbPTR1 [2] = target: T3, TbPTR1 (Trypanosoma brucei brucei, UniProt O76290)
T3 construct: His6 (N); made in house; host or cells: E. coli BL21 (DE3), vector pET 15b::TbPTR1His (strain from the group of M. Paola Costi, Modena)
T3 sequence (O76290 1-268): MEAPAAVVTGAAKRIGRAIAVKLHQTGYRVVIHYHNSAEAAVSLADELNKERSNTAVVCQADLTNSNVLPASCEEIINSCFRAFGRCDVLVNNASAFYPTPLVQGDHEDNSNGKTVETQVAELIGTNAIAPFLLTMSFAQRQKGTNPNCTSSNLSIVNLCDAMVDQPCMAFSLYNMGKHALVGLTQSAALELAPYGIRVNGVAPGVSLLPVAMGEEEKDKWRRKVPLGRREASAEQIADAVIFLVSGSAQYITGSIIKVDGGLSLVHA

LmDHFR = target: T4, LmDHFR (Leishmania major, UniProt P07382); assay: Spectrophotometric enzyme inhibition assay, recombinant LmDHFR; type: biochemical
T4 construct: The DNA fragment encoding LmDHFR was amplified by Phusion DNA polymerase; His6 (N); made in house; host or cells: E. coli BL21(DE3), vector pET 11D::LmDHFRHis
T4 sequence (P07382 26-229 limits assumed): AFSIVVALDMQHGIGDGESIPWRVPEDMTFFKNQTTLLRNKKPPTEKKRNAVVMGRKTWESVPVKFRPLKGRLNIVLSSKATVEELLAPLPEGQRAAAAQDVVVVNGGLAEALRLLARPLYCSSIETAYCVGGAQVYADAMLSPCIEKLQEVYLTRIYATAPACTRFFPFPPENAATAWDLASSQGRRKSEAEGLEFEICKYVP
Experimental: (§3) Based on the in vitro assays against TbPTR1 and LmPTR1 performed in the previous works of our group, as well as the in silico results obtained from the current study, a total of 47 natural products were tested against the target enzymes. […] The concentration-effect curves for the IC50 and EC50 values that were obtained in the present study are depicted in Supplementary Materials Figures S21–S42.
The TbDHFR concentration was measured to be 0.04 mg/mL and a specific activity of 38.1 U/mg was calculated. The concentration of LmDHFR was 0.05 mg/mL with a specific activity of 56.2 U/mg. All measurements were carried out using the saturating concentrations for dihydrofolate (50 μM) and NADPH (150 μM) in Buffer C (50 mM Tris/HCl (pH 7.6), 250 mM NaCl, 10 mM BME). The saturating conditions for TbDHFR and LmDHFR were determined using the diagrams depicted in Figures S17 and S19 in the Supplementary Materials.
as §1, §2

TbDHFR = target: T5, TbDHFR (Trypanosoma brucei brucei, UniProt Q27783); assay: Spectrophotometric enzyme inhibition assay, recombinant TbDHFR; type: biochemical
T5 construct: pET 11D::TbDHFRHis vector design for the recombinant overexpression of TbDHFR in E. coli; His; made in house; host or cells: E. coli BL21(DE3), vector pET 11D::TbDHFRHis
T5 sequence (Q27783 28-238 limits assumed): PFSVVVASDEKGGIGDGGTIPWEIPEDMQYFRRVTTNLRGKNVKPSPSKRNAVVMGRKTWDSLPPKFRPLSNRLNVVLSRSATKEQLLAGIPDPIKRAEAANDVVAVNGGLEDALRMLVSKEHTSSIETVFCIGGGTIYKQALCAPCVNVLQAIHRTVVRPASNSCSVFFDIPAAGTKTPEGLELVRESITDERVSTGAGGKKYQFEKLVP
Experimental: Based on the in vitro assays against TbPTR1 and LmPTR1 performed in the previous works of our group, as well as the in silico results obtained from the current study, a total of 47 natural products were tested against the target enzymes.
The saturating conditions for TbDHFR and LmDHFR were determined using the diagrams depicted in Figures S17 and S19 in the Supplementary Materials.
as §1, §2

LmPTR1 [3] = target: T1, LmPTR1; assay: Spectrophotometric enzyme inhibition assay, recombinant LmPTR1; type: biochemical; settings: for pIC50: read-out: IC50 LmPTR1
Experimental: as §3
(§4) The used TbPTR1 concentration was 3.23 mg/mL, with a specific activity of 0.03 U/mg. The measurements were carried out using the enzyme’s individual saturating concentrations for folic acid (8 μM) and NADPH (150 μM) in Buffer A (50 mM Tris/HCl (pH 7.6), 250 mM NaCl). For LmPTR1, the protein concentration was 5.02 mg/mL and the specific activity was calculated to be 0.29 U/mg. Buffer B (50 mM NaH2PO4 (pH 6.0), 100 mM NaCl) was used for all LmPTR1 measurements and the saturating concentrations amounted to 50 μM of folic acid and 200 μM of NADPH. The saturating conditions of the PTR1 enzymes were determined using the diagrams depicted in Figures S16 and S18 in the Supplementary Materials.
as §1, §2

TbPTR1 [4] = target: T3, TbPTR1; assay: Dilution assay for reversible/irreversible inhibition of TbPTR1; type: biochemical; settings: inhibitor concentration near IC50
Source text: The catalytic center of TbPTR1 contains a cysteine residue (TbCys168) in close proximity to the substrate/inhibitor binding site. In our previous publication, we mentioned the possibility that Sesquiterpene Lactones 1 and 2 might interact as Michael acceptors with TbCys168 by covalent bond formation with its thiol group. Therefore, we have now subjected a selection of natural product inhibitors containing Michael acceptors (1, 2, 5, 17) to initial testing for irreversible inhibition, according to the dilution method described by Bisswanger (see Section 4.2.9).
In this method, the enzyme activity of the respective enzyme-inhibitor mixture is measured before and after a defined dilution (in this study, 1:2). In the absence of an inhibitor, dilution decreases the enzyme activity proportionally to the dilution factor. […] A reversible inhibitor, on the other hand, will dissociate upon dilution, resulting in a weaker decrease in activity than what corresponds to the dilution effect. In the presence of Inhibitors 1 and 2, the decrease in TbPTR1 activity upon the 1:2 dilution was almost proportional to the dilution factor, i.e., only 9.5% and 6.8% activity, respectively, were recovered compared to the reference. This would indeed support an irreversible mechanism of inhibition. […] However, further investigations on these compounds’ mechanisms of inhibition are under way.
To assign an either reversible or irreversible inhibition mechanism to selected compounds, the enzymatic activity of an enzyme-inhibitor mixture was determined before and after a defined dilution, using the reaction conditions described in Section 4.2.5 [16].
Two equivalent solutions with the respective enzyme and inhibitor combination were prepared, one of them being diluted with buffer in a 1:2 ratio shortly before the reaction was started by adding the substrate. The respective inhibitor concentration was set near the IC50 value. The substrate and cofactor concentrations were kept constant in both reaction mixtures. All measurements were carried out in duplicates against a reference containing DMSO instead of the inhibitor. […] If a reversible inhibitor was present, a higher degree of activity recovery (>>10%) could be observed than what corresponds to the dilution factor due to the partial dissociation of the inhibitor from the enzyme upon dilution. The percentual changes in the enzymatic activity of the undiluted and diluted test solution were compared and evaluated to decide the mechanism of inhibition.

TbPTR1 [5] = target: T3, TbPTR1; assay: Spectrophotometric enzyme inhibition assay, recombinant TbPTR1; type: biochemical
Experimental: as §3, §4, §1, §2

L. major = settings: read-out: EC50 against L. major; cited from earlier work
T. brucei [6] = settings: read-out: EC50 in vitro against T. brucei; cited from earlier work
T. brucei [7] = system: T. brucei; design: method as in PMID 27077842; settings: read-out: IC50 antitrypanosomal activity in T. brucei cell assays; cited from earlier work

Row | Structure (SMILES) | pIC50 (hDHFR) | inhibition at 50 µM (hDHFR) [%] | pIC50 (TbDHFR; read-out: IC50 TbDHFR) | pIC50 (LmPTR1 [3]) | TbPTR1 activity recovered upon 1:2 dilution compared to the reference (TbPTR1 [4]) [%] | pIC50 (TbPTR1 [5]; read-out: IC50 TbPTR1) | also measured
1 | O=C(OC1Cc2c(O)cc(O)cc2OC1c1ccc(O)c(O)c1)c1cc(O)c(O)c(O)c1 (single isomer, unassigned; (-)) [Compound 3, (−)-catchin-3-gallate] | 5.38 | > 50 | – | – | – | – | pIC50 (LmPTR1 [1]; read-out: IC50 LmPTR1; from previous study; cited from earlier work): 4.12; pIC50 (TbPTR1 [2]; read-out: IC50 TbPTR1; from previous study; cited from earlier work): < 4.00; pIC50 (LmDHFR): 6.22
2 | C=C1C(=O)O[C@@H]2/C=C(\CO)CC/C=C(\C)C[C@H](OC(=O)C(=C)[C@H](O)CO)[C@@H]12 [Compound 1, cnicin] | < 4.30 | – | < 4.30 | < 4.30 | 9.5 | – | inhibition of hDHFR (hDHFR): no relevant inhibition; pEC50 (TbPTR1 [2]; EC50 value; from previous study; read-out: EC50 TbPTR1 (footnote a); cited from earlier work): 4.91; inhibitory effect against LmPTR1 (LmPTR1 [3]): No relevant inhibitory effect
3 | COc1cc(/C=C/C(=O)CC(=O)/C=C/c2ccc(O)c(OC)c2)ccc1O [Compound 5, curcumin] | 4.47 | > 50 | – | < 4.30 | 16.6 | 4.73 | pEC50 (L. major): 4.48; pEC50 (T. brucei [6]): 5.60
4 | CC(C)=CCc1c(O)cc2oc3cc(O)c(O)c(CCC(C)(C)O)c3c(=O)c2c1O [Compound 6, garcinone c] | 5.77 | > 50 | – | – | – | – | pEC50 (hDHFR): 5.77; pIC50 (TbPTR1 [2]; from previous study; read-out: IC50 TbPTR1; cited from earlier work): < 4.00; pIC50 (LmDHFR; read-out: IC50 LmDHFR): 5.52
5 | O=C(/C=C/c1ccc(O[C@@H]2O[C@H](CO)[C@@H](O)[C@H](O)[C@H]2O)cc1)c1ccc(O)cc1O [Compound 7, isoliquiritin] | < 4.30 | – | – | – | – | – | pIC50 (LmPTR1 [1]; from previous study; read-out: IC50 LmPTR1; cited from earlier work): 4.07; pIC50 (TbPTR1 [5]): < 4.00; pIC50 (LmDHFR): 4.34
6 | O=C(/C=C/c1ccc(O)c(O)c1/C=C/c1ccc(O)c(O)c1)O[C@H](Cc1ccc(O)c(O)c1)C(=O)O [Compound 8, salvianolic acid A] | < 4.30 | – | – | – | – | 4.07 | pIC50 (TbDHFR): 5.60; pEC50 (LmDHFR): 4.73; pIC50 (T. brucei [7]): 5.51
7 | C=C(C)[C@H](CC=C(C)C)Cc1c(O)cc(O)c2c1O[C@H](c1ccc(O)cc1O)CC2=O [Compound 9, sophoraflavanone G] | – | > 50 | 5.03 | – | – | 4.50 | pEC50 (hDHFR): 4.50; pIC50 (LmDHFR; read-out: IC50 LmDHFR): 4.85; pIC50 (T. brucei [7]): 5.85
8 | O=C(/C=C/CCc1ccc(O)c(O)c1)CCc1ccc(O)c(O)c1 [Compound 17, dehydrohirsutanone] | 4.39 | > 50 | 4.75 | < 4.30 | 12.8 | 5.08 | pEC50 (L. major): < 4.00; pEC50 (T. brucei [6]): 5.60

— article PMC10673058, “In Silico and In Vitro Search for Dual Inhibitors of the Trypanosoma brucei and Leishmania major Pteridine Reductase 1 and Dihydrofolate Reductase” (Molecules, 2023)
